The nature of assay [1]: Growth inhibition of human NCI60 cells assessed as cell growth at 10 uM after 48 hrs by sulforhodamine B assay relative to control. In kind it is functional. To be noted: NCI60, 48 h, read-out: Activity. For orientation: Sulforhodamine B stains cellular protein and so reports cell mass.
Assay [2] is described as follows: Cytotoxicity against human SF539 cells after 48 hrs by sulforhodamine B assay. In kind it is functional. To be noted: SF-539, 48 h; for CC50: read-out: LC50 (the source's name).
Assay [3] concerns MDA-MB-435. The experiment in a line: Cytotoxicity against human MDA-MB-435 cells after 48 hrs by sulforhodamine B assay. It is filed as functional. To be noted: MDA-MB-435, 48 h; for CC50: read-out: LC50 (the source's name).
For assay [4], the system named is MDA-MB-468. The experiment in a line: Cytotoxicity against human MDA-MB-468 cells after 48 hrs by sulforhodamine B assay. In kind it is functional. Conditions: MDA-MB-468, 48 h; for CC50: read-out: LC50 (the source's name).
In assay [5] the test system is 786-0. The experiment in a line: Cytotoxicity against human 786-0 cells after 48 hrs by sulforhodamine B assay. It is filed as functional. Conditions: 786-0, 48 h; for CC50: read-out: LC50 (the source's name).
The target in assay [6] is Tyrosyl-DNA phosphodiesterase 1 (Homo sapiens, UniProt Q9NUW8). Briefly: Inhibition of recombinant human N-terminal His-tagged TDP1 (1824 bp) expressed in Escherichia coli BL21(DE3) cells using 5'-(5,6 FAM-AAC GTC AGG GTC TTC C-BHQ1)-3' as substrate measured every 1 min by RT-PCR method.
Chain of Tyrosyl-DNA phosphodiesterase 1 (Q9NUW8 whole entry): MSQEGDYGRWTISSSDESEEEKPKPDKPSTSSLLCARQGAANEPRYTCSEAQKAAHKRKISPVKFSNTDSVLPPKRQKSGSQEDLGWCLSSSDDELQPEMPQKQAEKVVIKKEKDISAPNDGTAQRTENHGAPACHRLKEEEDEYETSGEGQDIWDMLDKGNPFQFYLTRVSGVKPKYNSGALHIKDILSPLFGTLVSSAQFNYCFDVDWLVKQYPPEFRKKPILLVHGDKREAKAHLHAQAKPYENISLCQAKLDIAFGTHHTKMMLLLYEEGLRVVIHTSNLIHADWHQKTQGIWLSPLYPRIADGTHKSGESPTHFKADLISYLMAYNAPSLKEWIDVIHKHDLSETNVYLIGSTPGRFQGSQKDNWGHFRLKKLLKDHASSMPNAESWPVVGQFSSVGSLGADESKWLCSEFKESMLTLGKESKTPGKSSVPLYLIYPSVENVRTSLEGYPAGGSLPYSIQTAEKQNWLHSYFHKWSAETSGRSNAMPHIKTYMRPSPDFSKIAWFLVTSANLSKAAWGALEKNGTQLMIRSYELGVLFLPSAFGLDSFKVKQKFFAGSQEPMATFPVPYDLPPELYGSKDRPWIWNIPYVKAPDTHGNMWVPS
Assay [7] deals with MDA-MB-435. Briefly: Cytotoxicity against human MDA-MB-435 cells assessed as cell death at 100 uM after 48 hrs by sulforhodamine B assay. It is filed as functional, cell-based.
Assay [8] deals with MDA-MB-468. Briefly: Cytotoxicity against human MDA-MB-468 cells assessed as cell death at 100 uM after 48 hrs by sulforhodamine B assay. It is filed as functional, cell-based.
The test system of assay [9] is SF-539. The experiment in a line: Cytotoxicity against human SF539 cells assessed as assessed as cell death at 100 uM after 48 hrs by sulforhodamine B assay. It is filed as functional, cell-based.
Assay [10] has as its system 786-0. Briefly: Cytotoxicity against human 786-0 cells assessed as cell death at 100 uM after 48 hrs by sulforhodamine B assay. In kind it is functional, cell-based.
Assay [11] deals with SF-539. The experiment in a line: Cytotoxicity against human SF539 cells assessed as growth inhibition at 100 uM after 48 hrs by sulforhodamine B assay. In kind it is functional, cell-based.

The source made the active and inactive calls. The rule behind the calls is not given here.

With `Nc1c(C(=O)Nc2ccccc2Cl)sc2nc3c(cc12)CCCC3`, the growth at 10 µM in assay [1] amounted to 99.4%.

On to `Nc1c(C(=O)Nc2ccccc2)sc2nc3c(cc12)CCC3`, for which the growth at 10 µM in assay [1] worked out at 79.5%.

Regarding `Nc1c(C(=O)Nc2cccc(C(F)(F)F)c2)sc2nc3c(cc12)CCCC3`, the growth at 10 µM in [1] stood at 88.1%.

For the compound `Nc1c(C(=O)Nc2ccccc2F)sc2nc3c(cc12)CCCC3`, the growth at 10 µM in assay [1] was determined as 34.5%.

Consider `Nc1c(C(=O)Nc2cccc(C(F)(F)F)c2)sc2nc3c(cc12)CCCCCC3`, for which the concentration for 50% growth inhibition (GI50) in assay [2] came to 1710 nM; in the assay on MDA-MB-435 [3], 2100 nM; in the assay with MDA-MB-468 [4], 798 nM; with 786-0 [5], 1600 nM. The CC50 in assay [2] turned out to be 6650 nM; in the assay on MDA-MB-435 [3], 59200 nM; in the assay with MDA-MB-468 [4], 15400 nM; in the assay with 786-0 [5] it was 6070 nM. Besides, the growth at 10 µM in assay [1] is 7%. The IC50 in assay [6] worked out at 500 nM.

In the case of `Nc1c(C(=O)Nc2cccc(C(F)(F)F)c2)sc2nc3c(cc12)CCCCC3`, the GI50 in assay [2] is 1940 nM; in the assay with MDA-MB-435 [3], 2530 nM; in the assay on MDA-MB-468 [4], 394 nM; in the assay with 786-0 [5] it was 1580 nM. Also, the CC50 in assay [2] came out at 11300 nM; in the assay on MDA-MB-468 [4], 31000 nM; in the assay on 786-0 [5], 6240 nM. Also, the result in the assay on MDA-MB-435 [7] was inactive. In addition, the growth at 10 µM in [1] amounted to 10%.

Turning to `Nc1c(C(=O)Nc2ccccc2)sc2nc3c(cc12)CCCCCC3`, the outcome in the assay on MDA-MB-468 [8] was inactive. Also, the GI50 is 217 nM in assay [2], 52 nM in the assay with MDA-MB-435 [3], 291 nM in the assay with MDA-MB-468 [4] and 354 nM in the assay with 786-0 [5]. The results for the CC50 (in [2]; in the assay with MDA-MB-435 [3]; in the assay with 786-0 [5]) were 3200 nM, 897 nM and 10200 nM, respectively. Moreover, the growth at 10 µM in assay [1] is 12.5%.

For `Nc1c(C(=O)Nc2ccccc2)sc2nc3c(cc12)CCCC3`, the result in the assay on MDA-MB-468 [8], in the assay on SF-539 [9], in the assay with 786-0 [10] and in the assay with MDA-MB-435 [7] was inactive. In addition, the GI50 in assay [2] turned out to be 416 nM; with MDA-MB-435 [3] it was 172 nM; in the assay with MDA-MB-468 [4], 303 nM; with 786-0 [5] it was 656 nM. The growth at 10 µM in [1] was found to be 30.3%.

`COc1cccc(NC(=O)c2sc3nc4c(cc3c2N)CCCC4)c1`: the result with MDA-MB-468 [8], with SF-539 [9] and with 786-0 [10] was inactive. Moreover, the GI50 was 368 nM in [2], 150 nM in the assay on MDA-MB-435 [3], 239 nM with MDA-MB-468 [4] and 420 nM in the assay with 786-0 [5]. For the same compound, in the assay on MDA-MB-435 [3], the CC50 turned out to be 13500 nM. The growth at 10 µM in assay [1] amounted to 28.2%.

As for `Nc1c(C(=O)Nc2c(Cl)cccc2Cl)sc2nc3c(cc12)CCCCC3`, the growth at 10 µM in assay [1] turned out to be 52.1%.

For `Nc1c(C(=O)Nc2ccccc2)sc2nc3c(cc12)CCCCC3`, the result in the assay with MDA-MB-468 [8], in the assay with 786-0 [10] and with MDA-MB-435 [7] was inactive. For the same compound, the GI50 in [2] amounted to 307 nM; in the assay on MDA-MB-435 [3], 205 nM; in the assay on MDA-MB-468 [4], 254 nM; with 786-0 [5], 465 nM. The CC50 in assay [2] was 94300 nM. Besides, in [1], the growth at 10 µM amounted to 14.7%.

In the case of `CCC1CCc2nc3sc(C(=O)Nc4ccccc4F)c(N)c3cc2C1` (racemic), the result with MDA-MB-468 [8], in the assay with SF-539 [9], with 786-0 [10] and in the assay on MDA-MB-435 [7] was inactive. Moreover, the 50% growth inhibitory concentration (GI50) in assay [2] was 10000 nM; with MDA-MB-435 [3] it was 133 nM; in the assay on MDA-MB-468 [4], 347 nM; with 786-0 [5], 41700 nM. In [1], the growth at 10 µM turned out to be 61.1%.

Consider `Nc1c(C(=O)Nc2ccccc2C(F)(F)F)sc2nc3c(cc12)CCCCCC3`, for which the growth at 10 µM in assay [1] is 80.2%.

Turning to `CCC1CCc2nc3sc(C(=O)Nc4ccccc4C)c(N)c3cc2C1` (racemic), the result with MDA-MB-468 [8], with SF-539 [9] and in the assay with 786-0 [10] was inactive. Further, the GI50 in assay [2] is 398 nM; with MDA-MB-435 [3], 104 nM; in the assay with MDA-MB-468 [4], 244 nM; in the assay on 786-0 [5], 371 nM. Besides, the growth at 10 µM in assay [1] was found to be 36.5%.

`Nc1c(C(=O)Nc2cccc(C(F)(F)F)c2)sc2nc3c(cc12)C(=O)CC3`: the half-inhibitory concentration (IC50) in assay [6] worked out at 1700 nM.

As for `Nc1c(C(=O)Nc2ccccc2F)sc2nc3c(cc12)CCC3`, the growth at 10 µM in [1] turned out to be 102%.

Take `CCC1CCc2nc3sc(C(=O)Nc4cccc(C)c4)c(N)c3cc2C1` (racemic): the growth at 10 µM in assay [1] amounted to 69.7%.

For `Nc1c(C(=O)Nc2ccccc2C(F)(F)F)sc2nc3c(cc12)CCC3`, in assay [6], the IC50 was greater than 15000 nM.

In the case of `Cc1cccc(NC(=O)c2sc3nc4c(cc3c2N)CCC4)c1C`, the GI50 amounted to 241 nM in [2], 52 nM in the assay with MDA-MB-435 [3], 197 nM in the assay on MDA-MB-468 [4] and 367 nM in the assay on 786-0 [5]. Also, the CC50 came to 72400 nM in assay [2], 22700 nM with MDA-MB-435 [3], 71200 nM with MDA-MB-468 [4] and 14300 nM in the assay with 786-0 [5]. Moreover, the growth at 10 µM in assay [1] stood at 23.6%.

In the case of `Nc1c(C(=O)Nc2ccccc2Cl)sc2nc3c(cc12)CCCCCC3`, the outcome in the assay on MDA-MB-468 [8] was inactive. Besides, the 50% growth inhibitory concentration (GI50) in [2] turned out to be 2650 nM; in the assay on MDA-MB-435 [3], 275 nM; in the assay on MDA-MB-468 [4], 2250 nM; in the assay on 786-0 [5], 1750 nM. For the same compound, the values for the CC50 (in assay [2]; in the assay with MDA-MB-435 [3]; with 786-0 [5]) were 46600 nM, 20900 nM and 6120 nM, respectively. Besides, in assay [1], the growth at 10 µM came to 29%. The IC50 in [6] stood at 1000 nM.

For the compound `Cc1cccc(NC(=O)c2sc3nc4c(cc3c2N)CCCC4)c1`, the result in the assay on MDA-MB-468 [8], with SF-539 [9], with 786-0 [10] and in the assay on MDA-MB-435 [7] was inactive. In addition, the GI50 in [2] was determined as 4740 nM; in the assay with MDA-MB-435 [3] it was 305 nM; in the assay on MDA-MB-468 [4] it was 1750 nM; in the assay on 786-0 [5] it was 4130 nM. Besides, in assay [1], the growth at 10 µM turned out to be 39.9%.

For the compound `CCC1CCc2nc3sc(C(=O)Nc4cccc(F)c4)c(N)c3cc2C1` (racemic), the outcome with MDA-MB-468 [8], with SF-539 [9], in the assay on 786-0 [10] and in the assay on MDA-MB-435 [7] was inactive. Besides, the GI50 in the assay on MDA-MB-435 [3] came out at 110 nM; with MDA-MB-468 [4] it was 471 nM; with 786-0 [5], 701 nM. For the same compound, in assay [1], the growth at 10 µM is 60.3%. In the assay on SF-539 [11], the “growth inhibition (GI)” value is “inactive”.

For the compound `Nc1c(C(=O)Nc2ccccc2C(F)(F)F)sc2nc3c(cc12)CCCC3`, the growth at 10 µM in assay [1] turned out to be 90.6%.

A word on the GI50: it is the concentration that inhibits growth by half. Low readings indicate greater sensitivity of the cells, high ones lower sensitivity of the cells. As a reminder, the IC50 is the concentration needed to halve the response being measured.

For the origin of these results see ChEMBL document CHEMBL3769377, “A synthesis, in silico, in vitro and in vivo study of thieno[2,3-b]pyridine anticancer analogues” (Medchemcomm, 2015).
